The results in this text go back to patent US20100184815A1 (priority 2008, published 2010).

Format in all cases: cell-based
The target of one experiment is T1, Gal-4 hPPARβ/δ (Homo sapiens, UniProt Q03181).
T1 construct: Plasmids pGal4-hPPARα, pGal4-hPPARγ, pGal4-hPPARδ and pG5-TK-pGL3 were constructed as previously described by Staels, Bart, et al., Nature 1998 Jun; 25
T1 sequence (Q03181 171-441 limits assumed): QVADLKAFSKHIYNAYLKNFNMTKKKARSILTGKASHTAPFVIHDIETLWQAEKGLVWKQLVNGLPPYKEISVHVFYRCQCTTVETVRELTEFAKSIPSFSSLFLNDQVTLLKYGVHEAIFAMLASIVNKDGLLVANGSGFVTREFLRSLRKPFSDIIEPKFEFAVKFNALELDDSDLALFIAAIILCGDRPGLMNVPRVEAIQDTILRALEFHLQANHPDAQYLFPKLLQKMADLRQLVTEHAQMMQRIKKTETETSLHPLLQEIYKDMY
Nature of the experiment: Gal4-hPPARδ transient transfection reporter assay in Cos cells. The note with it: luciferase reporter, 24 hours with compound, scale 1-5, read-out: Gal-4 hPPAR β/δ EC50 (scaled number). As to the method: (§1) Construction of recombinant plasmids. Plasmids pGal4-hPPARα, pGal4-hPPARγ, pGal4-hPPARδ and pG5-TK-pGL3 were constructed as previously described by Staels, Bart, et al., Nature 1998 Jun. 25; 393 (6687): 790-793, by Staels (Institut Pasteur de Lille, FR).
(§2) Transient transfection assays. Cos cells were seeded in 60-mm dishes at a density of 5.5×10^5 cells/dish in Dulbecco's modified Eagle's medium (DMEM) supplemented with 10% fetal calf serum (FCS) and incubated at 37° C. for 24 hours before transfection. Cells were transfected in Opti-MEM (Gibco; Invitrogen, Carlsbad, Calif.) without FCS for 3 hours at 37° C., using polyethylenimine, with reporter and expression plasmids. The plasmid pBluescript (Stratagene, La Jolla, Calif.) was used as carrier DNA to set the final amount of DNA to 5.5 μg/dish. The pCMV-b-galactosidase expression plasmid was cotransfected as a control for transfection efficiency. Transfection was stopped by the addition of DMEM supplemented with 10% FCS, and cells were then incubated at 37° C. After 16 hours, cells were trypsinized and seeded in 96-well plates at the density of 2×10^4 cells/well and incubated for 6 hours in 10% FCS-containing DMEM. Cells were then incubated for 24 hours in DMEM containing 0.2% FCS and increasing concentrations of the compound tested or vehicle (DMSO). At the end of the experiment, cells were washed once with ice-cold PBS, lysed and the luciferase and b-galactosidase assays were performed in a luminometer and spectrophotomer. Transfection efficiencies were normalized with the b-galactosidase activity assay. Half-maximal effective concentration (EC50) was estimated using Prism software (GraphPad). All transfection experiments were performed at least three times.
(§3) In the following tables, proprietary compound EC50 values for hPPAR α, β, δ and γ are shown. The EC50 value is the concentration of a drug that induces a response halfway between the baseline and maximum, and is commonly used as a measure of drug potency. EC50 values are reported on a scale of 1 through 5, wherein the value scale is defined for each receptor as follows: […]
Background: In a reporter assay the amount or activity of a reporter protein is the signal.

A further experiment has as its target T2, Gal-4 hPPARα (Homo sapiens, UniProt Q07869).
T2 construct: Plasmids pGal4-hPPARα, pGal4-hPPARγ, pGal4-hPPARδ and pG5-TK-pGL3 were constructed as previously described by Staels, Bart, et al., Nature 1998 Jun; 25
T2 sequence (Q07869 200-468 limits assumed): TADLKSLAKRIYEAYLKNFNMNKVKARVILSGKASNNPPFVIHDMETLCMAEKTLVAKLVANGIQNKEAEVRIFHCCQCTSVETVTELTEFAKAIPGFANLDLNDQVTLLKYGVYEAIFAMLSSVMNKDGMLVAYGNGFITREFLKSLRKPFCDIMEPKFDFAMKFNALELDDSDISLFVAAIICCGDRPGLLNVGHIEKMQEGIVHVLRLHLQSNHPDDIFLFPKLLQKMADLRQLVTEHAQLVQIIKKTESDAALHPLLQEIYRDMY
Nature of the experiment: Gal4-hPPARα transient transfection reporter assay in Cos cells. The conditions noted are these: luciferase reporter, 24 hours with compound, scale 1-5, read-out: Gal-4 hPPAR α EC50 (scaled number). As to the method:
as §1, §2, §3

Another experiment has as its target T3, Gal-4 hPPARγ (Homo sapiens, UniProt P37231).
T3 construct: Plasmids pGal4-hPPARα, pGal4-hPPARγ, pGal4-hPPARδ and pG5-TK-pGL3 were constructed as previously described by Staels, Bart, et al., Nature 1998 Jun; 25
T3 sequence (P37231 238-505 limits assumed): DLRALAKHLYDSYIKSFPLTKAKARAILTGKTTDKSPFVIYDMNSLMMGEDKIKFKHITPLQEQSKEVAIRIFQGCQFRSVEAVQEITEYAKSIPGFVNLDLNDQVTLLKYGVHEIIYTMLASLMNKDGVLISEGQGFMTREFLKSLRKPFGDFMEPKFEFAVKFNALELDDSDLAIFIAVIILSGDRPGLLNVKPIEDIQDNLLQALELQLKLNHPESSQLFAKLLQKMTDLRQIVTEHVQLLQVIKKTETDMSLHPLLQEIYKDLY
Nature of the experiment: Gal4-hPPARγ transient transfection reporter assay in Cos cells. The note with it: luciferase reporter, 24 hours with compound, scale 1-5, read-out: Gal-4 hPPAR γ EC50 (scaled number). Here is the method: as §1, §2, §3

Structures are written as SMILES.

Turning to `CCCn1c(COC(=O)c2ccc(SC(C)(C)C(=O)O)cc2)nn(Cc2cc(C(F)(F)F)cc(C(F)(F)F)c2)c1=O` [Compound 177, 2-(4-(((1-(3,5-bis(trifluoromethyl)benzyl)-5-oxo-4-propyl-4,5-dihydro-1H-1,2,4-triazol-3-yl)methoxy)carbonyl)phenylthio)-2-methylpropanoic acid], the values for the EC50 at Gal-4 hPPARβ/δ, at Gal-4 hPPARα and at Gal-4 hPPARγ were more than 1000 nM, 1 to 50 nM and 201 to 999 nM, respectively.
Consider `CCn1c(COC(=O)c2ccc(SC(C)(C)C(=O)O)cc2)nn(Cc2ccc(C(F)(F)F)cc2)c1=O` [Compound 197, 2-(4-(((4-ethyl-5-oxo-1-(4-(trifluoromethyl)benzyl)-4,5-dihydro-1H-1,2,4-triazol-3-yl)methoxy)carbonyl)phenylthio)-2-methylpropanoic acid], for which the figures for the EC50 on Gal-4 hPPARβ/δ, on Gal-4 hPPARα and on Gal-4 hPPARγ were more than 1000 nM, 1 to 50 nM and more than 1000 nM, respectively.
Consider `CCCCCCn1c(COC(=O)c2ccc(SC(C)(C)C(=O)O)cc2)nn(Cc2ccc(C(OC)(C(F)(F)F)C(F)(F)F)cc2)c1=O` [Compound 201, 2-(4-(((1-(4-(1,1,1,3,3,3-hexafluoro-2-methoxypropan-2-yl)benzyl)-4-hexyl-5-oxo-4,5-dihydro-1H-1,2,4-triazol-3-yl)methoxy)carbonyl)phenylthio)-2-methylpropanoic acid], for which the figures for the EC50 on Gal-4 hPPARβ/δ, on Gal-4 hPPARα and on Gal-4 hPPARγ were more than 1000 nM, 1 to 50 nM and more than 1000 nM, respectively.
As for `Cc1ccc(Cn2cc([C@H](C)OC(=O)c3ccc(SC(C)(C)C(=O)O)cc3)nn2)cc1` [Compound 85, (S)-2-methyl-2-(4-((1-(1-(4-methylbenzyl)-1H-1,2,3-triazol-4-yl)ethoxy)carbonyl)phenylthio)propanoic acid], the EC50 at Gal-4 hPPARβ/δ is more than 1000 nM; on Gal-4 hPPARα, 201 to 999 nM; on Gal-4 hPPARγ, more than 1000 nM.
As to `CC(C)(Sc1ccc(C(=O)OCc2cnn(Cc3ccc(F)c(F)c3)c2)cc1)C(=O)O` [Compound 24, 2-(4-(((1-(3,4-difluorobenzyl)-1H-pyrazol-4-yl)methoxy)carbonyl)phenylthio)-2-methylpropanoic acid], the EC50 was more than 1000 nM at Gal-4 hPPARβ/δ, 51 to 200 nM on Gal-4 hPPARα and more than 1000 nM at Gal-4 hPPARγ.
As to `CCCCCCn1c(COC(=O)c2ccc(OC(C)(C)C(=O)O)cc2)nn(Cc2ccc(C(OC)(C(F)(F)F)C(F)(F)F)cc2)c1=O` [Compound 202, 2-(4-(((1-(4-(1,1,1,3,3,3-hexafluoro-2-methoxypropan-2-yl)benzyl)-4-hexyl-5-oxo-4,5-dihydro-1H-1,2,4-triazol-3-yl)methoxy)carbonyl)phenoxy)-2-methylpropanoic acid], the EC50 was more than 1000 nM on Gal-4 hPPARβ/δ, 1 to 50 nM on Gal-4 hPPARα and more than 1000 nM at Gal-4 hPPARγ.
On to `CC(C)(Sc1ccc(C(=O)OCc2cn(Cc3ccc(SC(F)(F)F)cc3)nn2)cc1)C(=O)O` [Compound 71, 2-methyl-2-(4-(((1-(4-(trifluoromethylthio)benzyl)-1H-1,2,3-triazol-4-yl)methoxy)carbonyl)phenylthio)propanoic acid], for which the EC50 at Gal-4 hPPARβ/δ was more than 1000 nM; on Gal-4 hPPARα it was 51 to 200 nM; on Gal-4 hPPARγ, more than 1000 nM.
As for `CC(C)(Sc1ccc(C(=O)OCc2cnn(Cc3ccc(C(C)(C)C)cc3)c2)cc1)C(=O)O` [Compound 6, 2-(4-(((1-(4-tert-butylbenzyl)-1H-pyrazol-4-yl)methoxy)carbonyl)phenylthio)-2-methylpropanoic acid], the figures for the EC50 at Gal-4 hPPARβ/δ, at Gal-4 hPPARα and at Gal-4 hPPARγ were more than 1000 nM, 1 to 50 nM and 201 to 999 nM, respectively.
In the same order, the values of `CCCn1c(COC(=O)c2ccc(OC(C)(C)C(=O)O)cc2)nn(Cc2ccc(SC(F)(F)F)cc2)c1=O` [Compound 210, 2-methyl-2-(4-(((5-oxo-4-propyl-1-(4-(trifluoromethylthio)benzyl)-4,5-dihydro-1H-1,2,4-triazol-3-yl)methoxy)carbonyl)phenoxy)propanoic acid] are more than 1000 nM, 201 to 999 nM and more than 1000 nM.
